Experimental data: PubChem BioAssay AID463203 (Broad Institute, 2010)
Active and inactive are the calls of the source.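 How the source made its calls: active means more than half of replicate measurements showing over 20% loss of kinase signal relative to plate controls; inconclusive means some but at most half of replicates over 20% loss; inactive means no replicate over 20% signal loss.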

target: Glycogen synthase kinase-3 alpha (Homo sapiens) (UniProt P49840); experiment: concentration-response blocking of human GSK3A – biochemical, luminescence, cell-free homogeneous, retest, dose response (AID 463203); conditions: GSK-3 alpha enzyme, ADP-Glo luminescence, 60 min
Sequence (P49840 whole entry, looked up): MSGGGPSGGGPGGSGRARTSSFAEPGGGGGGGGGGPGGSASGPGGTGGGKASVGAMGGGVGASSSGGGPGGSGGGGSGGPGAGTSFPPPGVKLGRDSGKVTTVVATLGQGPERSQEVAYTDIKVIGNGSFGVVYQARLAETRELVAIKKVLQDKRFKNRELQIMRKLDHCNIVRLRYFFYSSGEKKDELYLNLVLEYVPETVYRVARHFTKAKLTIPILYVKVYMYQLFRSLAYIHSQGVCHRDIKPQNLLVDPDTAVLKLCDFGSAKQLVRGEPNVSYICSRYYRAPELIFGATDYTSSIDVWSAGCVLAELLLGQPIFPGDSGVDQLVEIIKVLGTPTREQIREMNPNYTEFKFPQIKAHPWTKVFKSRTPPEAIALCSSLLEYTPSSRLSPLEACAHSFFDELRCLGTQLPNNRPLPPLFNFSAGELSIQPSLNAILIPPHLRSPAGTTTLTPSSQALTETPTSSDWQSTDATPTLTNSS

SMILES	AC50
CCOc1ccccc1-n1c(O)c(C=NCc2ccc3c(c2)OCO3)c(=O)[nH]c1=O	17.5 µM
CC(C)(C)c1cc(-c2nc(N)nc(N)n2)c(O)c(C(C)(C)C)c1	> 30 µM (inactive)
COC1OC(COC(=O)c2ccccc2)C(OC(=O)c2ccccc2)C1OC(=O)c1ccccc1 (stereo not given)	> 30 µM (inactive)
COc1ccc(-n2c(O)c(C=NCCCn3ccnc3)c(=O)[nH]c2=O)cc1	5.43 µM
O=C1/C(=C/c2ccc(O)c(O)c2)Oc2cc(O)ccc21	10.5 µM
COC(=O)c1ccc(CSc2ccc3nnc(-c4ccc(OC)cc4)n3n2)o1	17.1 µM
Cc1[nH]nc2c1C(c1ccsc1)C1=C(CC(C)(C)CC1=O)N2 (stereo not given)	1.06 µM
CC(=O)Nc1ccccc1C	> 30 µM (inactive)
Cc1cc(C)nc(NS(=O)(=O)c2cccs2)c1	> 30 µM (inactive)
O=c1[nH]c(=S)n(CCC2=CCCCC2)c(O)c1C=NCCCn1ccnc1	14.3 µM
COc1ccc(C(=O)NC(=O)CSc2nnc(-c3ccco3)n2-c2ccccc2)cc1	> 30 µM (inactive)
CCOC(=O)/C(C#N)=C1/SC(CCO)C(=O)N1c1ccccc1 (stereo not given)	13.1 µM
COc1cc(O)cc2c1C(=O)OC(C)CCCC(=O)CCC/C=C\2 (stereo not given)	> 30 µM (inactive)
CN1CCN(Cc2c(C(=O)N/N=C/c3cccc(Br)c3)nnn2-c2nonc2N)CC1	20.2 µM
Nc1cccc(C(=O)O)c1	> 30 µM (inactive)
COc1cc(C2c3sc(=O)[nH]c3SC3C(=O)N(c4ccc(Br)cc4)C(=O)C32)ccc1O (stereo not given)	> 30 µM (inactive)
CCC(C)[C@H](NC(=O)NCc1ccccc1Cl)C(=O)OC (stereo not given in full)	> 30 µM (inactive)
CSc1ccc(-c2cc(=O)c3ccccc3o2)cc1	> 30 µM (inactive)
CN1/C(=C/C=C(C#N)C#N)C(C)(C)c2ccccc21	> 30 µM (inactive)
COc1ccc(OC)c(NC(=O)c2nnn(Cc3ccc(Br)cc3F)c2N)c1	> 30 µM (inactive)
Cc1ccc(N=Nc2c(O)ccc3n[nH]nc23)cc1	4.23 µM
CN(C)C(=O)Oc1cccc2c(OC(=O)N(C)C)cccc12	> 30 µM (inactive)
Cc1cnn(C(=O)c2ccccc2Br)c1	> 30 µM (inactive)
COC1(OC)N=C(NC(=O)Nc2ccccc2)C2(C#N)C(c3ccccc3)C12C#N (stereo not given)	> 30 µM (inactive)
CCOC(=O)N1CCc2c(sc3nc4n(c(=O)c23)N=C(c2ccc(OC)cc2)CS4)C1	> 30 µM (inactive)
Cc1ccc(Cn2nc(-c3ccccc3)nc2-c2ccccc2)cc1	> 30 µM (inactive)
Cc1ccc(Cn2cc(/C=N/Nc3ccc([N+](=O)[O-])cn3)c3ccccc32)cc1	> 30 µM (inactive)

SMILES	AC50
Cc1sc(NC(=O)CSc2nc(N)cc(N)n2)c(C#N)c1C	> 30 µM (inactive)
COc1ccc(-c2cc(C(F)(F)F)nc(SCCC(=O)NCc3ccco3)n2)cc1	> 30 µM (inactive)
COc1ccc(C2NC(=O)NC(C)=C2C(=O)OCc2ccc3c(c2)OCO3)cc1OC (stereo not given)	10.2 µM
COc1ccccc1N=c1oc2cc(O)ccc2cc1C(N)=O	4.68 µM
CCc1ccc(C2CC(c3cccc(Cl)c3)n3nc(N)nc3N2)cc1 (stereo not given)	> 30 µM (inactive)
COc1cccc(N/C(SC)=C(/C#N)C(N)=O)c1	30 µM
CN1CCC(=NNC(=O)C(=O)NC2CCCC2)CC1	> 30 µM (inactive)
CCNC(=S)NNC(=O)Cc1ccccc1	> 30 µM (inactive)
COc1cc(/C=N/NC(=O)c2ccncc2)ccc1OCCN1CCCCC1	> 30 µM (inactive)
CC(C)OC(=O)/C(C#N)=C/c1c[nH]c2ccccc12	> 30 µM (inactive)
Cc1ccc(N=CC2=C(O)CC(C)(C)CC2=O)nc1	> 30 µM (inactive)
CN(C)CCCNc1ccc(S(N)(=O)=O)cc1[N+](=O)[O-]	> 30 µM (inactive)
Cc1cc(N2CCN(c3ccccc3)CC2)n2c(n1)nc1ccccc12	4.33 µM
O=C(/C=C/c1cccc2ccccc12)c1ccncc1	> 30 µM (inactive)
COc1cc(NC(=O)c2cc([N+](=O)[O-])ccc2NC(=O)CNC2CCCCC2C)cc(OC)c1 (stereo not given)	> 30 µM (inactive)
Cc1cc(N2CCN(c3ccccc3)CC2)n2cc(-c3ccccc3)nc2n1	> 30 µM (inactive)
CCOC(=O)c1cnc2cc(F)c(F)cc2c1N1CCN(C)CC1	> 30 µM (inactive)
CCOc1ccc(C(=O)c2cnc3ccccc3c2N2CCN(CC)CC2)cc1	> 30 µM (inactive)
Fc1ccccc1N1CCN(CCCNc2ccc3nncn3n2)CC1	> 30 µM (inactive)
Cc1cc2[nH]c(=S)[nH]c2cc1C	> 30 µM (inactive)
Cc1cc(C(=O)N/N=C/c2cc(N=Nc3ccccc3)ccc2O)n[nH]1	> 30 µM (inactive)
O=C(Nc1nnc(-c2ccco2)s1)C1CCCCC1	> 30 µM (inactive)
N#Cc1c(N)n(CCNC(=O)c2cccs2)c2nc3ccccc3nc12	25.7 µM
O=[N+]([O-])c1cnccc1NC1CCCCC1	> 30 µM (inactive)
Cc1ccc(OCC(=O)N2CCN(c3nnc(-c4ccc(C)cc4)c4ccccc34)CC2)cc1	> 30 µM (inactive)
COc1ccccc1NC(=O)CSc1nnc(-c2ccc(C)cc2)o1	> 30 µM (inactive)
COc1ccc(-c2cn3cccnc3n2)cc1NC(=O)C(C)C	> 30 µM (inactive)

SMILES	AC50
COc1ccccc1C(=O)O/N=C(\N)c1ccccn1	> 30 µM (inactive)
CCN1C(=O)/C(=C\c2cccs2)C(C(=O)OC)=C1C	> 30 µM (inactive)
CCOC(=O)c1nc(NCc2ccccc2F)c2ccccc2n1	> 30 µM (inactive)
O=c1c2ccccc2oc2cc(NCCCn3ccnc3)ccc12	> 30 µM (inactive)
O=C1CC(c2cccs2)CC2=C1C(c1ccccc1)n1ncnc1N2 (stereo not given)	> 30 µM (inactive)
CCc1cc(C(=O)c2ccc(OC)cc2)c(NC(=O)COCC(=O)O)s1	> 30 µM (inactive)
O=C(COC(=O)Cc1ccc(F)cc1)Nc1ccc(Cl)cn1	14.1 µM
CCCCc1ccc(NC(=O)N[C@@H](CC(C)C)C(=O)O)cc1	> 10 µM (inactive)
O=C(CCN1CCOCC1)Nc1cccc(Br)c1	> 30 µM (inactive)
Cc1cc(OC(=O)c2c(C)cc(OC(=O)c3c(C)cc(O)cc3O)cc2O)cc(O)c1C(=O)O	> 30 µM (inactive)
C=CCn1c(O)c(C(C)=NCCCn2ccnc2)c(=O)[nH]c1=O	19.4 µM
COCCCNc1nc(N)c([N+](=O)[O-])c(N2CCCCCC2)n1	9.97 µM
CC(OC(=O)Cc1c[nH]c2ccccc12)C(=O)N(C)c1ccccc1 (stereo not given)	> 30 µM (inactive)
COc1cccc(C2CC(=O)Nc3cc(OC)c(OC)c(OC)c32)c1OC (stereo not given)	> 30 µM (inactive)
Cc1ccc2nc(-c3cccc(N)c3)[nH]c2c1	> 30 µM (inactive)
COc1ccccc1C(=O)NNC(=O)c1cccc(Br)c1	> 30 µM (inactive)
O=C1CCCN1CCCNc1ncccc1[N+](=O)[O-]	> 30 µM (inactive)
Clc1nccnc1N/N=C/c1ccc(Br)cc1	> 30 µM (inactive)
Nn1c(SCc2ccccc2F)nnc1-c1ccncc1	> 30 µM (inactive)
COC(=O)C1=C(C)Nc2ncnn2C1c1ccco1 (stereo not given)	> 30 µM (inactive)
CC(/C=N/NC(=O)CSc1nc2ccccc2n1C)=C\c1ccco1	> 30 µM (inactive)
COc1ccc2nc(NC(=O)CN3C(=O)NC4(CCCC4)C3=O)sc2c1	26.3 µM
O=C(c1ccccc1)c1cnc(Nc2ccccc2Cl)s1	> 30 µM (inactive)
CCOc1ccc2ncc(S(=O)(=O)c3ccccc3)c(N3CCN(c4ccc(OC)cc4)CC3)c2c1	> 30 µM (inactive)
COc1ccc(Cl)cc1C(=O)Nc1ccc(NC(=O)c2ccco2)cc1	> 30 µM (inactive)
COc1cc2c(C#N)c(N3CCCC3)nc(N)c2c(N)n1	> 30 µM (inactive)
O=C(Nc1ncc([N+](=O)[O-])s1)C1CC(=O)N(c2ccc(F)cc2)C1 (stereo not given)	12.4 µM

SMILES	AC50
COc1ccc(C2CC(=O)N3CN(c4ccccc4F)CSC3=C2C#N)cc1OC (stereo not given)	> 30 µM (inactive)
COc1ccc(NC(=O)c2ccc(NCC3CCCO3)c([N+](=O)[O-])c2)cc1 (stereo not given)	> 30 µM (inactive)
Cc1ccccc1NC1=NCCCS1	> 30 µM (inactive)
CCOC(=O)c1nc(NCc2cccc(OC)c2)c2ccccc2n1	> 30 µM (inactive)
CCOC(=O)c1sc(NC(=O)C2CC2)nc1C	15 µM
COc1ccc(COC(=O)C2=C(C)NC(=O)NC2c2ccccc2F)cc1 (stereo not given)	> 30 µM (inactive)
CC1(C)Cc2cccc(C(=O)Nc3ccncc3)c2O1	5.8 µM
COc1ccc(N=Cc2c(O)[nH]c3ccccc23)cc1OC	20.3 µM
CCCCn1c(O)c(C(CC)=NCCCn2ccnc2)c(=O)[nH]c1=O	13.9 µM
Cn1cc([N+](=O)[O-])c(C(=O)Nc2cnn(Cc3ccc(F)cc3)c2)n1	> 30 µM (inactive)
Cc1ccc(-c2nc3n(n2)Cc2ccccc2-3)cc1	> 30 µM (inactive)
Cc1n[nH]c(=S)n1/N=C/c1ccc(-c2ccccc2[N+](=O)[O-])o1	24.9 µM
COc1cc(CN2CCN(Cc3ccc([N+](=O)[O-])cc3)CC2)c([N+](=O)[O-])cc1OC	> 30 µM (inactive)
COc1ccc(C(=O)C[n+]2cccc(Br)c2)cc1	> 30 µM (inactive)
COc1cc(-c2[nH]nc3c2C(c2ccoc2)C(C#N)=C(N)O3)cc(OC)c1OC (stereo not given)	26.1 µM
Clc1ccc(-c2nnc(SCc3nc(-c4ccccc4)no3)o2)cc1	> 30 µM (inactive)
CC(C(=O)Nc1cccc(Br)c1)c1ccc([N+](=O)[O-])cc1 (stereo not given)	> 30 µM (inactive)
CC(=O)Nc1ccc(C2(c3ccc(NC(C)=O)cc3)NC(=O)c3ccccc32)cc1	> 30 µM (inactive)
CCOc1ccc2ncc(S(=O)(=O)c3ccccc3)c(N3CCN(c4ccccc4)CC3)c2c1	> 30 µM (inactive)
N#CCCn1cc(C(=O)N2CCCCC2)c(-c2cccc([N+](=O)[O-])c2)n1	> 30 µM (inactive)
Cc1noc(C)c1CSc1nnc(-c2ccccc2)o1	> 30 µM (inactive)
CCC(=O)/C=C1\Sc2ccc(OC)cc2N1CCO	> 30 µM (inactive)
COc1ccc(C(=O)c2cc(C(C)=O)c(Nc3ccccc3)s2)cc1	> 30 µM (inactive)
CC(=O)Nc1cccc(-c2csc(NCc3ccccc3)n2)c1	> 30 µM (inactive)
